Literature values as cited in patent US20050124791A1, “Ion channel” (priority 2001, published 2005).

Tested on: adenylate cyclase from the outer segment of the bovine retina
Settings: membrane-associated and purified soluble enzyme

## Nc1nc2c(ncn2[C@@H]2O[C@H](COP(=O)(O)OP(=O)(O)OP(=O)(O)O)[C@@H](O)[C@H]2O)c(=O)[nH]1 [GTP]
  stimulation of the enzyme: Neither the membrane-associated nor the purified soluble enzyme can be stimulated

## Nc1nc2c(ncn2[C@@H]2O[C@H](COP(=O)(O)OP(=O)(O)OP(O)(O)=S)[C@@H](O)[C@H]2O)c(=O)[nH]1 [GTPyS]
  stimulation of the enzyme: Neither the membrane-associated nor the purified soluble enzyme can be stimulated

## GMPPhT
  stimulation of the enzyme: Neither the membrane-associated nor the purified soluble enzyme can be stimulated
